Data published in patent publication US20240000669A1, “NOVEL ENDODONTIC IRRIGANT” (INTER-MED, INC., priority 2020, published 2024).

Tests used:
[1] = Free available chlorine over time in 1:1 mixtures of chelating agent solutions with 3% NaOCl; type: physicochemical; settings: for ability to maintain initial available chlorine, in words: after 1 hour, HEDP only above a pH of 11
[2] = Organic tissue dissolution capacity of antiseptic and chelating solutions (mass loss of tissue samples, FIG. 4); settings: 30 mL aqueous solution, 30 minutes
Protocol: Since the smear layer produced upon mechanical debridement of infected dental hard tissues includes both organic and inorganic dentin components, an investigation was conducted to determine the organic tissue dissolution capacity of various antiseptics and chelating solutions that are commonly used in dentistry and medical applications. For this purpose, soft tissue samples were incubated in aqueous solutions containing the agents to be studied and the mass loss of the tissue samples was measured. The results are collected in FIG. 4, where the average mass loss is given as a percentage fraction of the initial weight. FIG. 4 illustrates the mass loss (Mean %) of tissue samples incubated in 30 mL of aqueous solutions of various agents after 30 minutes. […] It can be seen that high concentrations of NaOCl along with the addition of surfactants (anionic and nonionic) tended to increase the tissue dissolution rate.

[3] = Mass loss of tissue samples in sodium hypochlorite at different pH values (FIG. 6); settings: 30 mL sodium hypochlorite, 30 minutes
From the text: The organic tissue dissolution capacity of NaOCl may be a function of free available chlorine in solution and a function of alkalinity. As pH increases to above […] the proportion of the hypochlorite anion (OCl^−) to hypochlorous acid (HOCl) dramatically increases. Below this pH, the concentration of hypochlorite anion decreases and the concentration of HOCl increases (see FIG. 5, which illustrates the chlorine speciation profile as a function of pH). […] However, as the concentration of the hypochlorite ions decreases, the tissue dissolution capacity also decreases (see FIG. 6, which illustrates mass loss of tissue samples incubated in 30 mL of sodium hypochlorite at different pH values after 30 minutes.). In certain aspects of the invention, the medicament comprises HOCl and OCl— and has a pH between 8 and 10.

[4] = Smear layer removal from instrumented root canals (smear layer score); settings: score 1 = very little smear layer remaining, 5 = heavy smear layer present
From the text: (§1) A score of 1 indicates very little smear layer remaining, whereas a score of 5 indicates heavy smear layer present.

[5] = Preliminary investigation of smear layer removal (calcium chelation)
From the text: as §1

For `CC(O)(P(=O)(O)O)P(=O)(O)O` [HEDP, 1-hydroxyethylidene-1,1-diphosphonic acid], the “Free Available Chlorine Remaining Post Mix (hours): 0” value ([1]; 0 h, HEDP 15% at pH 11.1, 1:1 mix with 3% NaOCl) was 100%, the “Free Available Chlorine Remaining Post Mix (hours): 1” value ([1]; 1 h, HEDP 15% at pH 11.1, 1:1 mix with 3% NaOCl) was 80% and the “Free Available Chlorine Remaining Post Mix (hours): 4” value ([1]; 4 h, HEDP 15% at pH 11.1, 1:1 mix with 3% NaOCl) was 40%. For the same compound, the “Free Available Chlorine Remaining Post Mix (hours): 24” value ([1]; 24 h, HEDP 15% at pH 11.1, 1:1 mix with 3% NaOCl) was 20% and the “ability to maintain initial available chlorine, in words” value [1] was “able to maintain most of their initial available chlorine”.
With `OCl` [NaOCl, sodium hypochlorite] the “mass loss of tissue samples (FIG. 4), in words” value [2] was “largest mass loss”, the “capability of dissolving organic tissue as a function of pH (FIG. 6), in words” value [3] was “most capable of dissolving organic tissue at a pH above 8” and the “residual smear layer score, Apical” value ([4]; apical root canal third) was 3.5. For the same compound, the “residual smear layer score, Coronal” value ([4]; coronal root canal third) was 3.2 and the “residual smear layer score, Middle” value ([4]; middle root canal third) was 3.6.
For `O=P(O)(O)O[C@H]1[C@H](OP(=O)(O)O)[C@@H](OP(=O)(O)O)[C@H](OP(=O)(O)O)[C@@H](OP(=O)(O)O)[C@H]1OP(=O)(O)O` [PA, phytic acid (C6H6[OPO(OH)2]6)], the “ability to maintain initial available chlorine, in words” value [1] was “able to maintain most of their initial available chlorine” and the “calcium chelator strength, in words” value [5] was “relatively weak calcium chelators”.
In the case of `O=C(O)CCC(CC(=O)O)(C(=O)O)P(=O)(O)O` (stereo not drawn) [PBTC, 2-phosphonobutane-1,2,4,-tricarboxylic Acid], the “ability to maintain initial available chlorine, in words” value [1] is reported as “able to maintain most of their initial available chlorine”.
For `O=P1([O-])OP(=O)([O-])OP(=O)([O-])OP(=O)([O-])OP(=O)([O-])OP(=O)([O-])O1.[Na+].[Na+].[Na+].[Na+].[Na+].[Na+]` [SH, sodium hexametaphosphate], the “ability to maintain initial available chlorine, in words” value [1] was “able to maintain most of their initial available chlorine” and the “calcium chelator strength, in words” value [5] was “relatively weak calcium chelators”.
